Measured values from US9527828B2, “Method for expanding hematopoietic stem cells using heterocyclic compound” (Nissan Chemical Industries, Ltd., priority 2007, dated 2016).

What follows are compounds tested on CD34^+CD38^− cells (assay: Expansion of CD34+CD38− cells from human cord blood-derived CD34+ cells (Example 2)). Conditions: 1 μg/mL compound, 50 ng/mL SCF, StemSpan SFEM, 7 days; based on number of CD34+CD38− cells in the absence of compound.
Type: cell-based
Experimental: The human cord blood-derived CD34^+ cells collected or purchased in Example 1 were plated on a 24-well plate (TPP) (10000 cells/1/mL/well). As the culture medium, StemSpan SFEM (Stemcell Technologies) containing 50 ng/mL SCF (Peprotech) was used, and Compounds No. 1 to 133 dissolved in dimethyl sulfoxide were added in an amount of 0.1% (v/v) to a final concentration of 1 μg/mL.
After the cells were incubated in liquid culture at 37° C. for 7 days in a CO2 incubator (5% CO2), the number of viable cells was counted by trypan blue assay. The number of CD34^+CD38^− cells was calculated as follows. After the incubation, the cells in the liquid culture was stained with a CD34 antibody (APC, Becton, Dickinson and Company) and a CD38 antibody (PE, Becton, Dickinson and Company), then washed with PBS(−) containing 2% (v/v) FBS and stained with propidium iodide (Sigma-Aldrich Japan) added to a final concentration of 5 μg/mL. The stained cells were analyzed with a flow cytometer JSAN (Bay Bioscience) to determined the proportion of CD34^+CD38^− cells, which was multiplied by the number of viable cells to calculate the number of CD34^+CD38^− cells.
The expansion efficiencies in the presence of 1 μg/mL of compounds based on the number of CD34^+CD38^− cells in the absence of them are shown in Tables 2 and 3 on a scale of A for expansion efficiencies of 10 or greater, B for expansion efficiencies of at least 5 and less than 10, and C for expansion efficiencies of at least 3 and less than 5.
In the case of `C/C(=N\NC(=O)c1ccc(C(=O)NCc2cn(C)cn2)s1)c1csc(-c2ccc(C(F)(F)F)cc2)c1O` [compound 131], the Expansion efficiency is reported as “A (A for expansion efficiencies of 10 or greater)”. `C/C(=N\NC(=O)c1ccc(C(=O)NCCO)s1)c1csc(-c2ccc(Cl)cc2)c1O` [compound 70] was tested, and the Expansion efficiency was “B (B for expansion efficiencies of at least 5 and less than 10)”.

Same assay, conditions: Homo sapiens, 168 h, 1 μg/mL compound, 50 ng/mL SCF, StemSpan SFEM, 7 days; based on number of CD34+CD38− cells in the absence of compound; read-out: Expansion efficiency
`CNC(=O)c1ccc(CNC(=O)c2ccc(C(=O)N/N=C(\C)c3csc(-c4ccc(C(C)(C)C)cc4)c3O)s2)cc1` [compound 107] was tested, and the fold induction at 1 µg/mL was ≥ 10. `C/C(=N\NC(=O)c1ccc(C(=O)NCc2ccnn2C)s1)c1csc(-c2ccc(C(F)(F)F)cc2)c1O` [compound 45] gave a fold induction at 1 µg/mL of 5 to 10. For `C/C(=N\NC(=O)c1ccc(C(=O)NCCCN(C)C)s1)c1csc(-c2ccc(Cl)c(Cl)c2)c1O` [compound 64], the fold induction at 1 µg/mL was 3 to 5. `CNC(=O)c1ccc(CNC(=O)c2ccc(C(=O)N/N=C(\C)c3csc(-c4ccc(Cl)cc4)c3O)s2)cc1` [compound 110] was tested, and the fold induction at 1 µg/mL was ≥ 10. For `CNC(=O)c1ccc(CNC(=O)c2ccc(C(=O)N/N=C(\C)c3csc(-c4ccc(OC(F)(F)F)cc4)c3O)s2)cc1` [compound 111], the fold induction at 1 µg/mL was ≥ 10. For `C/C(=N\NC(=O)c1ccc(C(=O)NCc2cccc(C(N)=O)c2)s1)c1csc(-c2ccc(C(F)(F)F)cc2)c1O` [compound 95], the fold induction at 1 µg/mL was ≥ 10. For `CC(=O)Nc1ccc(C(C)NC(=O)c2ccc(C(=O)N/N=C(\C)c3csc(-c4ccc(Cl)c(Cl)c4)c3O)s2)cc1` (centres unmarked) [compound 120], the fold induction at 1 µg/mL was ≥ 10. For `C/C(=N\NC(=O)c1ccc(C(=O)NCc2ccno2)s1)c1csc(-c2ccc(Cl)c(Cl)c2)c1O` [compound 40], the fold induction at 1 µg/mL was 5 to 10. `C/C(=N\NC(=O)c1ccc(C(=O)NCc2cccs2)s1)c1csc(-c2cccc(Cl)c2)c1O` [compound 30] showed a fold induction at 1 µg/mL of 5 to 10. With `C/C(=N\NC(=O)c1ccc(C(=O)NCc2ccncn2)s1)c1csc(-c2ccc(Cl)c(Cl)c2)c1O` [compound 84] the fold induction at 1 µg/mL was 5 to 10. In the case of `CC(=O)Nc1ccc(C(C)NC(=O)c2ccc(C(=O)N/N=C(\C)c3csc(-c4ccc(OC(F)(F)F)cc4)c3O)s2)cc1` (centres unmarked) [compound 125], the fold induction at 1 µg/mL is reported as ≥ 10. With `C/C(=N\NC(=O)c1ccc(C(=O)NCc2ccccc2C(N)=O)s1)c1csc(-c2ccc(Cl)c(Cl)c2)c1O` [compound 99] the fold induction at 1 µg/mL was ≥ 10. For `CNC(=O)c1ccc(CNC(=O)c2ccc(C(=O)N/N=C(\C)c3csc(-c4ccc(OC)cc4)c3O)s2)cc1` [compound 112], the fold induction at 1 µg/mL was ≥ 10. Compound `C/C(=N\NC(=O)c1ccc(C(=O)NCc2cn(C)cn2)s1)c1csc(-c2ccc(OC(F)(F)F)cc2)c1O` [compound 82] has a fold induction at 1 µg/mL of 3 to 5. `C/C(=N\NC(=O)c1ccc(C(=O)NCc2ccc(S(C)(=O)=O)cc2)s1)c1csc(-c2ccc(Cl)c(Cl)c2)c1O` [compound 59] gave a fold induction at 1 µg/mL of 5 to 10. In the case of `C/C(=N\NC(=O)c1ccc(C(=O)NCc2cccc(C(N)=O)c2)s1)c1csc(-c2ccc(C(C)(C)C)cc2)c1O` [compound 93], the fold induction at 1 µg/mL is reported as ≥ 10. In the case of `COc1ccc(-c2scc(/C(C)=N/NC(=O)c3ccc(C(=O)NC(C)c4ccc(C(N)=O)cc4)s3)c2O)cc1` (centres unmarked) [compound 119], the fold induction at 1 µg/mL is reported as ≥ 10. For `C/C(=N\NC(=O)c1ccc(C(=O)NCc2cnccn2)s1)c1csc(-c2ccc(Cl)c(Cl)c2)c1O` [compound 8], the fold induction at 1 µg/mL was ≥ 10. With `C/C(=N\NC(=O)c1ccc(C(=O)NCCO)s1)c1csc(-c2ccc(Cl)c(Cl)c2)c1O` [compound 65] the fold induction at 1 µg/mL was 5 to 10. With `C/C(=N\NC(=O)c1ccc(C(=O)NCc2c(C)nn(C)c2C)s1)c1csc(-c2ccc(Cl)c(Cl)c2)c1O` [compound 41] the fold induction at 1 µg/mL was 5 to 10. In the case of `C/C(=N\NC(=O)c1ccc(C(=O)NC(C)c2ccc(C(N)=O)cc2)s1)c1csc(-c2ccc(C(C)(C)C)cc2)c1O` (centres unmarked) [compound 114], the fold induction at 1 µg/mL is reported as ≥ 10. `C/C(=N\NC(=O)c1ccc(C(=O)NCc2c(C)nn(C)c2C)s1)c1csc(-c2ccc(C(F)(F)F)cc2)c1O` [compound 49] gave a fold induction at 1 µg/mL of 5 to 10. `C/C(=N\NC(=O)c1ccc(C(=O)NCc2ccccc2C(N)=O)s1)c1csc(-c2ccc(C(F)(F)F)cc2)c1O` [compound 102] was tested, and the fold induction at 1 µg/mL was ≥ 10. In the case of `C/C(=N\NC(=O)c1ccc(C(=O)NCc2cc(C)n(C)n2)s1)c1csc(-c2ccc(C(F)(F)F)cc2)c1O` [compound 56], the fold induction at 1 µg/mL is reported as 5 to 10. `C/C(=N\NC(=O)c1ccc(C(=O)NCc2cc(C)n(C)n2)s1)c1csc(-c2ccc(Cl)cc2)c1O` [compound 19] was tested, and the fold induction at 1 µg/mL was ≥ 10. `C/C(=N\NC(=O)c1ccc(C(=O)NCc2ccc(C(=O)O)cc2)s1)c1csc(-c2ccc(Cl)c(Cl)c2)c1O` [compound 83] gave a fold induction at 1 µg/mL of 3 to 5. `C/C(=N\NC(=O)c1ccc(C(=O)NCc2cc(C)on2)s1)c1csc(-c2ccc(Cl)c(Cl)c2)c1O` [compound 38] was tested, and the fold induction at 1 µg/mL was ≥ 10. With `CCNC(=O)c1ccc(C(=O)N/N=C(\C)c2csc(-c3ccc(Cl)c(Cl)c3)c2O)s1` [compound 24] the fold induction at 1 µg/mL was 5 to 10. For `C/C(=N\NC(=O)c1ccc(C(=O)NCc2ccc(C(N)=O)cc2)s1)c1csc(-c2ccc(Br)cc2)c1O` [compound 87], the fold induction at 1 µg/mL was ≥ 10. In the case of `C/C(=N\NC(=O)c1ccc(C(=O)NCc2cc[n+]([O-])cc2)s1)c1csc(-c2ccc(Cl)cc2)c1O` [compound 18], the fold induction at 1 µg/mL is reported as ≥ 10. `CCCNC(=O)c1ccc(C(=O)N/N=C(\C)c2csc(-c3ccc(Cl)c(Cl)c3)c2O)s1` [compound 62] gave a fold induction at 1 µg/mL of 3 to 5. In the case of `C/C(=N\NC(=O)c1ccc(C(=O)NCCO)s1)c1csc(-c2ccc(Cl)cc2)c1O` [compound 10], the fold induction at 1 µg/mL is reported as ≥ 10. For `C/C(=N\NC(=O)c1ccc(C(=O)NCc2cc(C)n(C)n2)s1)c1csc(-c2ccc(OC(F)(F)F)cc2)c1O` [compound 128], the fold induction at 1 µg/mL was ≥ 10. With `CNC(=O)c1ccc(CNC(=O)c2ccc(C(=O)N/N=C(\C)c3csc(-c4ccc(C(F)(F)F)cc4)c3O)s2)cc1` [compound 109] the fold induction at 1 µg/mL was ≥ 10. Work on `C/C(=N\NC(=O)c1ccc(C(=O)NCc2ccno2)s1)c1csc(-c2ccc(C(F)(F)F)cc2)c1O` [compound 48] yielded a fold induction at 1 µg/mL of 5 to 10. With `C/C(=N\NC(=O)c1ccc(C(=O)NCCN2CCOCC2)s1)c1csc(-c2ccc(Br)cc2)c1O` [compound 34] the fold induction at 1 µg/mL was 3 to 5. For `C/C(=N\NC(=O)c1ccc(C(=O)NCc2cccs2)s1)c1csc(-c2ccc(Cl)cc2)c1` [compound 12], the fold induction at 1 µg/mL was ≥ 10. With `C/C(=N\NC(=O)c1ccc(C(=O)NCCN(C)C)s1)c1csc(-c2ccc(Cl)c(Cl)c2)c1O` [compound 66] the fold induction at 1 µg/mL was 3 to 5. Work on `C/C(=N\NC(=O)c1ccc(C(=O)NCc2ccccn2)s1)c1csc(-c2cccc(Cl)c2)c1O` [compound 75] yielded a fold induction at 1 µg/mL of 3 to 5. `CC(=O)Nc1ccc(C(C)NC(=O)c2ccc(C(=O)N/N=C(\C)c3csc(-c4ccc(Br)cc4)c3O)s2)cc1` (centres unmarked) [compound 122] was tested, and the fold induction at 1 µg/mL was ≥ 10. In the case of `C/C(=N\NC(=O)c1ccc(C(=O)NCc2cccc(C(N)=O)c2)s1)c1csc(-c2ccc(OC(F)(F)F)cc2)c1O` [compound 97], the fold induction at 1 µg/mL is reported as ≥ 10. `C/C(=N\NC(=O)c1ccc(C(=O)NC2CC2)s1)c1csc(-c2ccc(Cl)c(Cl)c2)c1` [compound 21] was tested, and the fold induction at 1 µg/mL was ≥ 10. Compound `C/C(=N\NC(=O)c1ccc(C(=O)NCCN2CCCC2)s1)c1csc(-c2ccc(Cl)c(Cl)c2)c1O` [compound 67] has a fold induction at 1 µg/mL of 3 to 5. For `CCCCCN(C)C(=O)c1ccc(C(=O)N/N=C(\C)c2csc(-c3ccc(Cl)c(Cl)c3)c2O)s1` [compound 27], the fold induction at 1 µg/mL was 5 to 10. In the case of `C/C(=N\NC(=O)c1ccc(C(=O)NCc2cn(C)cn2)s1)c1csc(-c2ccc(Cl)cc2)c1O` [compound 132], the fold induction at 1 µg/mL is reported as ≥ 10. `C/C(=N\NC(=O)c1ccc(C(=O)NCc2cncn2C)s1)c1csc(-c2ccc(C(F)(F)F)cc2)c1O` [compound 52] gave a fold induction at 1 µg/mL of 5 to 10. Compound `C/C(=N\NC(=O)c1ccc(C(=O)NC(C)C)s1)c1csc(-c2cccc(Cl)c2)c1O` [compound 78] has a fold induction at 1 µg/mL of 5 to 10. For `CC(=O)Nc1ccc(C(C)NC(=O)c2ccc(C(=O)N/N=C(\C)c3csc(-c4ccc(Cl)cc4)c3O)s2)cc1` (centres unmarked) [compound 124], the fold induction at 1 µg/mL was ≥ 10. `COc1ccc(-c2scc(/C(C)=N/NC(=O)c3ccc(C(=O)NCc4ccccc4C(N)=O)s3)c2O)cc1` [compound 105] showed a fold induction at 1 µg/mL of 5 to 10. Compound `CCCN(CC)C(=O)c1ccc(C(=O)N/N=C(\C)c2csc(-c3ccc(Cl)c(Cl)c3)c2O)s1` [compound 85] has a fold induction at 1 µg/mL of 3 to 5. `COc1ccc(-c2scc(/C(C)=N/NC(=O)c3ccc(C(=O)NCc4cc(C)n(C)n4)s3)c2O)cc1` [compound 129] was tested, and the fold induction at 1 µg/mL was ≥ 10. With `C/C(=N\NC(=O)c1ccc(C(=O)NCc2ccc(C#N)cc2)s1)c1csc(-c2ccc(Cl)c(Cl)c2)c1O` [compound 60] the fold induction at 1 µg/mL was ≥ 10. `C/C(=N\NC(=O)c1ccc(C(=O)NCc2cccnn2)s1)c1csc(-c2ccc(Cl)c(Cl)c2)c1O` [compound 44] gave a fold induction at 1 µg/mL of 5 to 10. In the case of `C/C(=N\NC(=O)c1ccc(C(=O)NCc2ccccc2C(N)=O)s1)c1csc(-c2ccc(Br)cc2)c1O` [compound 101], the fold induction at 1 µg/mL is reported as ≥ 10.
